ChEMBL document CHEMBL5726613, “5-(N-fused tricyclic aryl tetrahydroisoquinolin-6-yl) pyridin-3-yl acetic acid derivatives as inhibitors of human immunodeficiency virus replication” (2019)

assay: Inhibition of HIV Replication: A recombinant NL-RLuc proviral clone was constructed in which a section of the nef gene from NL4-3 was replaced with the Renilla Luciferase gene. This virus is fully infectious and can undergo multiple cycles of replication in cell culture. In addition, the luciferous reporter provides a simple and easy method for quantitating the extent of virus growth and consequently, the antiviral activity of test compounds. The plasmid pNLRLuc contains the proviral NL-Rluc DNA cloned into pUC18 at the PvuII site. The NL-RLuc virus was prepared by transfection of 293T cells with the plasmid pNLRLuc. Transfections were performed using the LipofectAMINE PLUS kit from Invitrogen (Carlsbad, Calif.) according to the manufacturer and the virus generated was titered in MT-2 cells. For susceptibility analyses, the titrated virus was used to infect MT-2 cells in the presence of compound, and after 5 days of incubation, cells were processed and quantitated for virus growth by the amount of expressed luciferase. Assay media was RPMI 1640 supplemented with 10% heat inactivated fetal bovine serum (FBS), 100 units/ml penicillin G/100 units/ml streptomycin, 10 mM HEPES buffer pH 7.55 and 2 mM L-glutamine. The results from at least 2 experiments were used to calculate the EC50 values. Luciferase was quantitated using the Dual Luciferase kit from Promega (Madison, Wis.). Susceptibility of viruses to compounds was determined by incubation in the presence of serial dilutions of the compound. The 50% effective concentration (EC50) was calculated by using the exponential form of the median effect equation where (Fa)=1/[1+(ED50/drug conc.)m] (Johnson Va., Byington R T. Infectivity Assay. In Techniques in HIV Research. ed. Aldovini A, Walker B D. 71-76. New York: Stockton Press. 1990).; type: cell-based; conditions: HEK-293T

| SMILES | EC50 [nM] |
| --- | --- |
| Cc1nc(C)c([C@H](OC(C)(C)C)C(=O)O)c(N2CCC(C)(C)CC2)c1-c1ccc2c(c1)CCN(c1ncnc3c1oc1ccccc13)C2 | 1 |
| Cc1ccc2c(c1)[nH]c1nc(N3CCc4cc(-c5c(C)nc(C)c([C@H](OC(C)(C)C)C(=O)O)c5N5CCC(C)(C)CC5)ccc4C3)nc(Cl)c12 | 5 |
| Cc1nc(C)c([C@H](OC(C)(C)C)C(=O)O)c(N2CCC(C)(C)CC2)c1-c1ccc2c(c1)CCN(c1ncnc3c1sc1ccccc13)C2 | 4 |
| Cc1nc(C)c([C@H](OC(C)(C)C)C(=O)O)c(N2CCC(C)(C)CC2)c1-c1ccc2c(c1)CCN(c1ncnc3[nH]c4ccccc4c13)C2 | 5 |
| Cc1nc(C)c([C@H](OC(C)(C)C)C(=O)O)c(N2CCC(C)(C)CC2)c1-c1ccc2c(c1)CCN(c1ncnc3c1oc1ccc(F)cc13)C2 | 2 |
| Cc1nc(C)c([C@H](OC(C)(C)C)C(=O)O)c(N2CCC(C)(C)CC2)c1-c1ccc2c(c1)CCN(c1ncnc3c1oc1cccc(F)c13)C2 | 3 |
| CCn1c2ccc(C)cc2c2ncnc(N3CCc4cc(-c5c(C)nc(C)c([C@H](OC(C)(C)C)C(=O)O)c5N5CCC(C)(C)CC5)ccc4C3)c21 | 45 |
| Cc1nc(C)c([C@H](OC(C)(C)C)C(=O)O)c(N2CCC(C)(C)CC2)c1-c1ccc2c(c1)CCN(c1ncnc3sc4ccccc4c13)C2 | 5 |
| Cc1nc(C)c([C@H](OC(C)(C)C)C(=O)O)c(N2CCC(C)(C)CC2)c1-c1ccc2c(c1)CCN(c1ncnc3c1[nH]c1ccccc13)C2 | 24 |
| Cc1nc(C)c([C@H](OC(C)(C)C)C(=O)O)c(N2CCC(C)(C)CC2)c1-c1ccc2c(c1)CCN(c1ncnc3c1oc1ncccc13)C2 | 1 |
| Cc1nc(C)c([C@H](OC(C)(C)C)C(=O)O)c(N2CCC(C)(C)CC2)c1-c1ccc2c(c1)CCN(c1ccc3ccc4cccnc4c3n1)C2 | 3 |
| CCOc1cccc2oc3c(N4CCc5cc(-c6c(C)nc(C)c([C@H](OC(C)(C)C)C(=O)O)c6N6CCC(C)(C)CC6)ccc5C4)ncnc3c12 | 1 |
| Cc1ccc2[nH]c3c(N4CCc5cc(-c6c(C)nc(C)c([C@H](OC(C)(C)C)C(=O)O)c6N6CCC(C)(C)CC6)ccc5C4)ncnc3c2c1 | 13 |
| Cc1nc(C)c([C@H](OC(C)(C)C)C(=O)O)c(N2CCC(C)(C)CC2)c1-c1ccc2c(c1)CCN(c1nc3ccccc3c3ccccc13)C2 | 31 |
